Measured values taken from patent US20210403858A1, “Bacillus strain and microbial preparation of bacillus and method of using microbial preparation” (ROLLING GREENS CO., LTD., priority 2020, published 2021).

How the values were obtained:
[1] = tested on: rice seedlings; assay: IAA sensitivity test on rice seedlings; type: in vivo; details: 4 days
Experimental: Taking rice and lettuce for example, IAA sensitivity of the microbial preparation is tested in steps of: disinfecting and germinating rice seedlings; putting the rice seedlings in a sterilized Petri dish in which a filter paper is disposed; […]; moving the sterilized Petri dish into a plant growth box for 4 days; measuring an average height of buds of the rice seedlings and an average height of roots of the rice seedlings;

[2] = tested on: lettuce; assay: IAA sensitivity test on lettuce; type: in vivo
Experimental: disinfecting seeds of the lettuce with 5% sodium hypochlorite and putting the seeds of the lettuce in another sterilized Petri dish in which a filter paper is disposed; adding 3 mL of 0.03 μM, 3 μM, 30 μM, and 300 μM of IAA aqueous solutions respectively; moving another sterilized Petri dish into another plant growth box for 3 days; and measuring a germination rate and a height of each lettuce and a length of a root of each lettuce.

O=C(O)Cc1c[nH]c2ccccc12 [IAA]
growth of the roots of the rice seedlings ([1]; IAA 0.03 μM to 30 μM, FIG. 1): does not promote a growth of the roots
growth of the roots of the rice seedlings ([1]; IAA 300 μM): limited
height of lettuce sprouts ([2]; IAA 0.03 μM, 3 days (no IAA: 5.3 mm)): 3.5 mm
length of lettuce roots ([2]; IAA 0.03 μM, 3 days (no IAA: 14.8 mm)): 8.8 mm
germination rate of the seeds of the lettuce ([2]; IAA 300 μM, 3 days (no IAA: 78%)): 13%
